Assay results taken from article PMC5712521, “Dendrogenin A drives LXR to trigger lethal autophagy in cancers” (Nature Communications, 2017).

How the values were obtained:
B16F10 cells = assay: Sterol analysis by GC/MS; format: cell-based, mouse; conditions: B16F10, 24 h, 10 µM 22(R)HC, 1 µM GW, 100 nM TO
Experimental: Sterols in cell homogenates were extracted with a solvent mixture containing chloroform/methanol 2/1 (v/v) spiked with epicoprostanol as the internal standard. Lipids were partitioned in chloroform after the addition of saline and saponified by methanolic potassium hydroxide (0.5 N, 60 °C, 15 min). The fatty acids released were methylated with BF3-methanol (12%, 60 °C, 15 min) to not interfere with the chromatography of sterols. The sterols were re-extracted in hexane and silylated, as described previously. The trimethylsilylether derivatives of the sterols were separated by gas chromatography (GC) (Hewlett–Packard 6890 series) in a medium polarity capillary column RTX-65, (65% diphenyl 35% dimethyl polysiloxane, length 30 m, diameter 0.32 mm, film thickness 0.25 μm (Restesk, Evry, France)). The mass spectrometer (Agilent 5975 inert XL) in series with the GC was set up for the detection of positive ions. Ions were produced in the electron impact mode at 70 eV. Sterols were identified by the fragmentogram in the scanning mode and quantified by selective monitoring of the specific ions after normalization with the internal standard epicoprostanol and calibration with weighed standards. […]
Anal yses were perform ed by GC/MS. f Quantification of sterols accumulated in
m elanom a cells after 24 h treatm ent with 10 µM 22(R) HC, 1 µ M GW , 100 nM T O or solvent
vehicle. […]

WM-266-4 cells = assay: DDA-induced cytotoxicity; format: cell-based; conditions: Homo sapiens; WM-266-4 (H), BRaf WT; 72 h; read-out: Cytotox EC50
Experimental: (§1) Melanoma cells were seeded into 6-well plates at 60,000 cells per well and AML cells at 250,000 cells/ml. The cells were then treated with control solvent vehicle (1/1000 ethanol in water) or DDA. Where indicated, treated cells were incubated in the presence or absence of each inhibitor for time shown. Cell death was determined by the trypan blue exclusion assay. Cells were scraped and resuspended in trypan blue solution (0.25% (w/v) in PBS) and counted in a Malassez cell under light microscopy. Cell viability was then quantified by counting viable (trypan blue-negative) and dead cells (trypan blue-positive). […]
(§2) (cytotox) and clonogenicity (clono) inhibition in a subset of human (H) and mouse (M)
(§3) m elanom a cell lines. T he BRaf status in m elanom a cells lines is shown. […]

A375 cells = assay: DDA-induced cytotoxicity; format: cell-based; conditions: Homo sapiens, A-375; A375 (H), BRaf V600E; 72 h; read-out: Cytotox EC50
Experimental: as §1, §2, §3

SKMEL-2 cells = assay: DDA-induced cytotoxicity; format: cell-based; conditions: Homo sapiens, SK-MEL-2; SKMEL-2 (H), BRaf WT; 72 h; read-out: Cytotox EC50
Experimental: as §1, §2, §3

[1] = molecular target: T1, 3β-hydroxysterol-Δ8,7-isomerase (D8D7I) (Homo sapiens, UniProt Q15125); assay: D8D7I inhibition shown by Δ8-sterol accumulation in melanoma cells; format: cell-based; conditions: B16F10 and SKMEL-28, 2.5 µM DDA, 48 h; accumulation of zymostenol and 8-dehydrocholesterol
T1 construct: endogenous in cells; host or cells: B16F10 (murine) and SKMEL-28 (human) melanoma cells
T1 sequence (Q15125 whole entry, stated change not applied): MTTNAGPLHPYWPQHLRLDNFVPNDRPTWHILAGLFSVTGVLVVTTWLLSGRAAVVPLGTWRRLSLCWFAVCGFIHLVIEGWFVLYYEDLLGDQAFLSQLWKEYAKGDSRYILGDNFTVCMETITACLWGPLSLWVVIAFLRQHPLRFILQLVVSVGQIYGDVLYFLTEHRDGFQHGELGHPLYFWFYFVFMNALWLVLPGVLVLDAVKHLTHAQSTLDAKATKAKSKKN
Experimental: Sterols in cell homogenates were extracted with a solvent mixture containing chloroform/methanol 2/1 (v/v) spiked with epicoprostanol as the internal standard. Lipids were partitioned in chloroform after the addition of saline and saponified by methanolic potassium hydroxide (0.5 N, 60 °C, 15 min). The fatty acids released were methylated with BF3-methanol (12%, 60 °C, 15 min) to not interfere with the chromatography of sterols. The sterols were re-extracted in hexane and silylated, as described previously. […] Sterols were identified by the fragmentogram in the scanning mode and quantified by selective monitoring of the specific ions after normalization with the internal standard epicoprostanol and calibration with weighed standards.
Supplementary Fig. 2. DD A induce d th e accum ulation of cholestero l precursors in m elanom a cells. a Quantification of sterol accum ulation in cells after 48 h tr eatm ent with or without 2.5 µM DDA. […]
accum ulation. e Representative EM im ages of cells treated for 24 h with solvent vehicle (panels 1- 2) or 2.5 µM DDA (panels 3- 4). […] Cells were treated with solvent vehicle (control) or 2.5 µM DDA for 24 h with or without 1 µ M Baf A1, the n stained with MDC and obser ved by fluorescence m icroscopy. […]

Row | SMILES | Sterol amount/total sterol: 8-DHC (B16F10 cells) | Sterol amount/total sterol: zymostenol (B16F10 cells) | EC50 (WM-266-4 cells) | EC50 (A375 cells) | EC50 (SKMEL-2 cells) | D8D7I inhibition [1]
1 | O=C(O)Cc1cccc(OCCCN(Cc2cccc(C(F)(F)F)c2Cl)CC(c2ccccc2)c2ccccc2)c1 [GW, GW3965] | 0.05± 0.005 | 0.11 ± 0.08 |  |  |  | 
2 | O=S(=O)(c1ccccc1)N(CC(F)(F)F)c1ccc(C(O)(C(F)(F)F)C(F)(F)F)cc1 [TO, TO901317] | 0.04± 0.005 | 0.12± 0.09 |  |  |  | 
3 | CC(C)CCC[C@@H](C)[C@H]1CC[C@H]2[C@@H]3C[C@@H](NCCc4cnc[nH]4)[C@@]4(O)C[C@@H](O)CC[C@]4(C)[C@H]3CC[C@]12C [DDA, Dendrogenin A] |  |  | 2700 ± 400 nM | 1800 ± 200 nM | 2300 ± 100 nM | inhibited D8D7I
4 | CC(C)CC[C@@H](O)[C@@H](C)[C@H]1CC[C@H]2[C@@H]3CC=C4C[C@@H](O)CC[C@]4(C)[C@H]3CC[C@]12C [22(R)HC, 22(R)-hydroxycholesterol] | 0.08± 0.006 | 0.24± 0.08 |  |  |  | 
